{"source": "patent US20120252834A1", "about": "(priority 2009, published 2012)", "key": {"[1]": {"test_system": "SEB-induced toxic shock in C3H/HeJ mice", "details": "mouse, in vivo"}, "[2]": {"experiment": "Determination of rapamycin in murine whole blood (HPLC, ion-trap MS)", "format": "in vivo", "details": "mouse; for concentration at 1 h / concentration at 97 h: C3H/HeJ, whole blood; for concentration at 1 h: read-out: blood level of rapamycin", "method": "Determination of rapamycin in murine whole blood. Blood was collected from rapamycin-treated mice (n=5) by retro-orbital bleeding into EDTA tubes 1 h after intranasal administration of rapamycin. Blood was centrifuged at 12000×g for 3 min to remove cells. Supernatants was removed and stored at −70° C. until analysis. Analysis of rapamycin was performed as previously described (23) using an Agilent Technologies series 1100 Capillary HPLC instrument and ion-trap mass spectrometer."}, "[3]": {"test_system": "serum MCP-1, IL-6 and IL-2 in SEB-treated mice", "details": "mouse, in vivo"}, "[4]": {"test_system": "human PBMC stimulated with SEB", "experiment": "cells", "format": "cell-based", "details": "for inhibition at 6.9 µg/mL: Homo sapiens, PBMC, 16 h"}, "[5]": {"test_system": "lung MCP-1, IL-2 and IL-6 in SEB-exposed mice", "details": "mouse, in vivo"}, "[6]": {"test_system": "peripheral blood cells and splenocytes from mice treated with SEB", "experiment": "Cellular apoptosis by JC-1 fluorescence (flow cytometry) in SEB-treated mice", "format": "in vivo, mouse", "details": "rapamycin 0.16 mg/kg i.n. at 17 h, cells taken 18 h after SEB", "method": "Detection of cellular apoptosis by measuring fluorescence of mitochondrial J-aggregates. The loss of mitochondrial permeability, indicative of cellular apoptosis was detected by a fluorescent cationic dye, JC-1 (51). Briefly, peripheral blood or spleens were removed at 18 h from mice treated with SEB, SEB plus 0.16 mg/kg of intranasal rapamycin at 17 h after SEB exposure. Negative controls consisted of mice treated with DMSO at 17 h after saline. Red blood cells from peripheral blood and spleens were lyzed with FACS lyzing buffer (Becton Dickinson, Mountainview, Calif.) prior to staining with JC-1 dye according to manufacturer's instructions (Immunochemistry Technology, Bloomington, Minn.). Flow cytometer (Becton Dickinson) was used to measure cell fluorescence at 530 nm, which represents apoptotic cells."}, "[7]": {"test_system": "SEA-, TSST-1-, SPEA-, and SPEC-stimulated human peripheral blood mononuclear cells", "format": "cell-based", "details": "rapamycin 1 μg/mL"}, "[8]": {"test_system": "SEB-induced proliferation of T cells in PBMC", "experiment": "cells", "format": "cell-based, human"}, "[9]": {"test_system": "PBMC", "experiment": "Trypan Blue exclusion test on PBMC", "details": "data not shown"}, "[10]": {"details": "cited from earlier work"}}, "note": "Read-outs that look alike come from different tables or passages of the source."}
{"smiles": "C[C@@H]1C[C@H]2[C@@H]3CCC4=CC(=O)C=C[C@]4(C)[C@@]3(F)[C@@H](O)C[C@]2(C)[C@@]1(O)C(=O)CO", "note": "[dexamethasone]", "values": [{"measurement": "lethality", "setting": "[1]", "result": 90, "unit": "%"}]}
{"smiles": "CO[C@H]1C[C@@H]2CC[C@@H](C)[C@@](O)(O2)C(=O)C(=O)N2CCCC[C@H]2C(=O)O[C@H]([C@H](C)C[C@@H]2CC[C@@H](O)[C@H](OC)C2)CC(=O)[C@H](C)/C=C(\\C)[C@@H](O)[C@@H](OC)C(=O)[C@H](C)C[C@H](C)/C=C/C=C/C=C/1C", "note": "[rapamycin]", "values": [{"measurement": "concentration at 1 h", "setting": "[2]; other: intranasal followed by intraperitoneal, 1 h after multiple dosing (2 i.n. doses plus 1 i.p. dose)", "result": "692 ± 406", "unit": "ng/mL"}, {"measurement": "concentration at 97 h", "setting": "[2]; other: intranasal followed by intraperitoneal, at 97 h, lower doses (0.03 mg/kg i.n. at 2 and 5 h, 0.08 mg/kg i.p. at 24, 48, 72 and 96 h)", "result": "38 ± 15", "unit": "ng/mL"}, {"measurement": "concentration at 97 h", "setting": "[2]; other: intranasal followed by intraperitoneal, at 97 h after multiple dosing (i.n. 0.7 mg/kg at 2 and 5 h, i.p. 1.6 mg/kg at 30, 48, 72 and 96 h)", "result": "622 ± 282", "unit": "ng/mL"}, {"measurement": "concentration at 1 h", "setting": "[2]; other: intranasal, 0.7 mg/kg, 1 h after an i.n. dose of 0.7 mg/kg", "result": "492 ± 204", "unit": "ng/mL"}, {"measurement": "blood level of rapamycin", "setting": "[2]; 1 h after an i.n. dose of 0.7 mg/kg, 0.7 mg/kg", "result": "658 ± 408", "unit": "ng/mL"}, {"measurement": "reduction of peak serum IL-6", "setting": "[3]", "result": 80, "unit": "%"}, {"measurement": "reduction of peak serum MCP-1", "setting": "[3]", "result": 90, "unit": "%"}, {"measurement": "suppression of IFNγ", "setting": "[4]", "result": 36, "unit": "%"}, {"measurement": "suppression of IL-2", "setting": "[4]", "result": 34, "unit": "%"}, {"measurement": "inhibition at 6.9 µg/mL", "setting": "[4]; read-out: inhibition of IL-1β production", "result": 97, "unit": "%"}, {"measurement": "inhibition at 6.9 µg/mL", "setting": "[4]; read-out: inhibition of IL-2 production", "result": 100, "unit": "%"}, {"measurement": "inhibition at 6.9 µg/mL", "setting": "[4]; read-out: inhibition of IL-6 production", "result": 67, "unit": "%"}, {"measurement": "inhibition at 6.9 µg/mL", "setting": "[4]; read-out: inhibition of TNFα production", "result": 77, "unit": "%"}, {"measurement": "attenuation of lung IL-2", "setting": "[5]", "result": 80, "unit": "%"}, {"measurement": "attenuation of lung IL-6", "setting": "[5]", "result": 65, "unit": "%"}, {"measurement": "attenuation of lung MCP-1", "setting": "[5]", "result": 56, "unit": "%"}, {"measurement": "decrease in number of apoptotic cells", "setting": "[6]; mouse peripheral blood", "result": 66, "unit": "%"}, {"measurement": "decrease in number of apoptotic cells", "setting": "[6]; mouse spleen", "result": 74, "unit": "%"}, {"measurement": "reduction of superantigen-induced T cell proliferation", "setting": "[7]; SEA-stimulated", "result": 74, "unit": "%"}, {"measurement": "reduction of superantigen-induced T cell proliferation", "setting": "[7]; SPEA-stimulated", "result": 68, "unit": "%"}, {"measurement": "reduction of superantigen-induced T cell proliferation", "setting": "[7]; SPEC-stimulated", "result": 69, "unit": "%"}, {"measurement": "reduction of superantigen-induced T cell proliferation", "setting": "[7]; TSST-1-stimulated", "result": 42, "unit": "%"}, {"measurement": "reduction of T cell proliferation", "setting": "[8]", "result": 56, "unit": "%"}, {"measurement": "inhibition at 6.9 µg/mL", "setting": "[8]; Homo sapiens, T-cell, 48 h, read-out: inhibition of SEB-induced T cell proliferation (maximal)", "result": 94, "unit": "%"}, {"measurement": "cytotoxic effect (Trypan Blue exclusion)", "setting": "[9]", "result": "not due to cytotoxic effect"}, {"measurement": "effective in protecting mice from SEB-mediated shock", "setting": "[1]", "result": 100, "unit": "%"}, {"measurement": "protected", "setting": "[1]", "result": 100, "unit": "%"}, {"measurement": "protection", "setting": "[1]", "result": 20, "unit": "%"}, {"measurement": "weight gain", "setting": "[1]", "result": "8-17%"}, {"measurement": "blood concentrations of rapamycin", "setting": "[10]; healthy subjects, 1 h after 15 mg of rapamycin", "result": "78.2 ± 18", "unit": "ng/mL"}, {"measurement": "blood levels of rapamycin", "setting": "[10]; renal transplantation, 5 mg/day, at 1.8 h", "result": "37.4 ± 21", "unit": "ng/mL"}]}
